Test results reported in patent US9322066B2, “Predictors for cancer treatment” (priority 2011, dated 2016).

System: relapsed or refractory, rituximab-naive or -sensitive follicular B-cell NHL
Assay: Time to progression (TTP), Vc-R vs rituximab study, by biomarker
Type: in vivo, human
Parameters: TTP Median: unit not given here
From the text: Non-Hodgkin lymphoma (NHL) encompasses several unique malignant lymphoid disease entities that vary in clinical behavior, morphologic appearance, immunologic, and molecular phenotype. […] A randomized, open-label, active-controlled, multicenter, multinational, prospective study to compare the efficacy and safety of the combination of bortezomib and rituximab (Vc-R) to single-agent rituximab in subjects who have relapsed or refractory, rituximab-naive or -sensitive follicular B-cell NHL was performed.
Subjects were centrally randomized to Treatment Groups A (Vc-R) or B (rituximab) in a 1:1 ratio taking into account the following stratification factors: • Follicular Lymphoma International Prognostic Index (FLIPI) score (low [0 or 1 factor], intermediate [2 factors], high [≧3 factors]); • Prior rituximab therapy (yes, no); • Time since last dose of anti-lymphoma therapy (≦1 year, >1 year); • Region (United States/Canada, European Union, Rest of World).
For single-marker association analyses and pair-wise comparisons, a log rank test and Cox proportional hazard model was utilized for assessments of PFS, TTP, and OS between the treatment groups. Kaplan-Meier curves were utilized to estimate the distribution differences between groups in the time-to-event analyses. Comparison of the response rates between the treatment groups was conducted using the Fishers exact test. Single-marker association analyses were stratified by the covariates.
For pair-wise comparison analysis, biomarker pairs were formed by combinations of two markers. A log rank test was utilized for assessments of PFS, TTP, and OS between the treatment groups in the subpopulation defined by biomarker pairs. Kaplan-Meier curves were utilized to estimate the distribution differences between groups in the time-to-event analyses. Comparison of the response rates between the treatment groups was conducted using the Fishers exact test. Methods of Analysis for the multiple biomarker comparison models can be found in section 4.6.

[1] = PSMB1/I208N: T/T, Ann Arbor Stage IV, IRC review
[2] = PSMB1/I208N: T/T, High Tumor Burden, IRC review
[3] = PSMB1/I208N: T/T, ≦65 years old, IRC review
[4] = PSMB1/P11A: C/G, Ann Arbor Stage IV, IRC review
[5] = PSMB1/P11A: C/G, High Tumor Burden, IRC review
[6] = PSMB1/P11A: C/G, ≦65 years old, IRC review
[7] = PSMB1/P193L: C/C, Ann Arbor Stage IV, IRC review
[8] = PSMB1/P193L: C/C, High Tumor Burden, IRC review
[9] = PSMB1/P193L: C/C, ≦65 years old, IRC review
[10] = PSMB2/E49X: G/G, Ann Arbor Stage IV, IRC review
[11] = PSMB2/E49X: G/G, High Tumor Burden, IRC review
[12] = PSMB2/E49X: G/G, ≦65 years old, IRC review
[13] = PSMB2/G187V: G/G, Ann Arbor Stage IV, IRC review
[14] = PSMB2/G187V: G/G, High Tumor Burden, IRC review
[15] = PSMB2/G187V: G/G, ≦65 years old, IRC review
[16] = PSMB2/L159F: C/C, Ann Arbor Stage IV, IRC review
[17] = PSMB2/L159F: C/C, High Tumor Burden, IRC review
[18] = PSMB2/L159F: C/C, ≦65 years old, IRC review
[19] = PSMB5/L206M: C/C, Ann Arbor Stage IV, IRC review
[20] = PSMB5/L206M: C/C, High Tumor Burden, IRC review
[21] = PSMB5/L206M: C/C, ≦65 years old, IRC review
[22] = PSMB5/R24C: C/C, ≦65 years old, IRC review
[23] = PSMB5/R24C: C/T, 2 Prior Lines of Therapy, IRC review
[24] = PSMB5/R24C: C/T, High Tumor Burden, IRC review
[25] = PSMB6/A234D: C/C, Ann Arbor Stage IV, IRC review
[26] = PSMB6/A234D: C/C, High Tumor Burden, IRC review
[27] = PSMB6/A234D: C/C, ≦65 years old, IRC review
[28] = PSMB6/P107A: C/C, Ann Arbor Stage IV, IRC review
[29] = PSMB6/P107A: C/C, ≦65 years old, IRC review
[30] = PSMB8/G8R: G/G, Ann Arbor Stage IV, IRC review
[31] = PSMB8/G8R: G/G, High Tumor Burden, IRC review
[32] = PSMB8/G8R: G/G, ≦65 years old, IRC review
[33] = PSMB8/R141C: C/C, Ann Arbor Stage IV, IRC review
[34] = PSMB8/R141C: C/C, High Tumor Burden, IRC review
[35] = PSMB8/R141C: C/C, ≦65 years old, IRC review
[36] = PSMB8/V182M: G/G, >1 year since last anti-lymphoma treatment, IRC review
[37] = PSMB8/V182M: G/G, Ann Arbor Stage IV, IRC review
[38] = PSMB8/V182M: G/G, High Tumor Burden, IRC review
[39] = PSMB8/V182M: G/G, ≦65 years old, IRC review
[40] = PSMB9/G9E: G/G, >1 year since last anti-lymphoma treatment, IRC review
[41] = PSMB9/G9E: G/G, Ann Arbor Stage IV, IRC review
[42] = PSMB9/G9E: G/G, High Tumor Burden, IRC review
[43] = PSMB9/G9E: G/G, ≦65 years old, IRC review
[44] = PSMB9/R60H: A/G, Male, IRC review
[45] = PSMB9/R60H: G/G, ≦65 years old, IRC review
[46] = PSMB9/V32I: C/C, >1 year since last anti-lymphoma treatment, IRC review
[47] = PSMB9/V32I: C/C, Ann Arbor Stage IV, IRC review
[48] = PSMB9/V32I: C/C, No Subgroup, IRC review
[49] = PSMB9/V32I: C/C, ≦65 years old, IRC review

rituximab
TTP Median (PSMB1/A171S: G/G, ≦65 years old, IRC review): 326 | TTP Evt/N [1]: 95/127 | TTP Median [1]: 278 | TTP Evt/N [2]: 110/147 | TTP Median [2]: 273 | TTP Evt/N [3]: 131/198 | TTP Median [3]: 326 | TTP Evt/N [4]: 46/59 | TTP Median [4]: 235 | TTP Evt/N [5]: 52/72 | TTP Median [5]: 253 | TTP Evt/N [6]: 62/96 | TTP Median [6]: 288 | TTP Evt/N [7]: 95/127 | TTP Median [7]: 278 | TTP Evt/N [8]: 110/147 | TTP Median [8]: 273 | TTP Evt/N [9]: 131/198 | TTP Median [9]: 326 | TTP Evt/N [10]: 95/127 | TTP Median [10]: 278 | TTP Evt/N [11]: 110/147 | TTP Median [11]: 273 | TTP Evt/N [12]: 131/198 | TTP Median [12]: 326 | TTP Evt/N [13]: 95/127 | TTP Median [13]: 278 | TTP Evt/N [14]: 110/147 | TTP Median [14]: 273 | TTP Evt/N [15]: 131/198 | TTP Median [15]: 326 | TTP Evt/N [16]: 95/127 | TTP Median [16]: 278 | TTP Evt/N [17]: 110/147 | TTP Median [17]: 273 | TTP Evt/N [18]: 131/198 | TTP Median [18]: 326 | TTP Evt/N [19]: 95/127 | TTP Median [19]: 278 | TTP Evt/N [20]: 110/147 | TTP Median [20]: 273 | TTP Evt/N [21]: 131/198 | TTP Median [21]: 326 | TTP Evt/N [22]: 115/170 | TTP Median [22]: 334 | TTP Evt/N [23]: 8/10 | TTP Median [23]: 280 | TTP Evt/N [24]: 17/21 | TTP Median [24]: 275 | TTP Evt/N [25]: 95/127 | TTP Median [25]: 278 | TTP Evt/N [26]: 110/147 | TTP Median [26]: 273 | TTP Evt/N [27]: 131/198 | TTP Median [27]: 326 | TTP Evt/N [28]: 92/124 | TTP Median [28]: 279 | TTP Evt/N [29]: 126/189 | TTP Median [29]: 330 | TTP Evt/N [30]: 88/120 | TTP Median [30]: 279 | TTP Evt/N [31]: 104/140 | TTP Median [31]: 271 | TTP Evt/N [32]: 124/189 | TTP Median [32]: 330 | TTP Evt/N [33]: 95/127 | TTP Median [33]: 278 | TTP Evt/N [34]: 110/147 | TTP Median [34]: 273 | TTP Evt/N [35]: 131/198 | TTP Median [35]: 326 | TTP Evt/N [36]: 104/165 | TTP Median [36]: 381 | TTP Evt/N [37]: 95/127 | TTP Median [37]: 278 | TTP Evt/N [38]: 110/147 | TTP Median [38]: 273 | TTP Evt/N [39]: 131/198 | TTP Median [39]: 326 | TTP Evt/N [40]: 104/163 | TTP Median [40]: 381 | TTP Evt/N [41]: 95/126 | TTP Median [41]: 278 | TTP Evt/N [42]: 110/145 | TTP Median [42]: 271 | TTP Evt/N [43]: 131/196 | TTP Median [43]: 326 | TTP Evt/N [44]: 22/28 | TTP Median [44]: 273 | TTP Evt/N [45]: 79/119 | TTP Median [45]: 330 | TTP Evt/N [46]: 102/160 | TTP Median [46]: 379 | TTP Evt/N [47]: 93/123 | TTP Median [47]: 277 | TTP Median (PSMB9/V32I: C/C, High Tumor Burden, IRC Review): 273 | TTP Evt/N [48]: 177/266 | TTP Median [48]: 345 | TTP Evt/N [49]: 129/192 | TTP Median [49]: 326
